From publication PMC2528936, “Snake Cathelicidin from Bungarus fasciatus Is a Potent Peptide Antibiotics” (PLoS ONE, 2008)
In brackets after ≈: the same amount, converted by molar mass. Like-named read-outs stand apart in the source and are kept apart here. Where a SMILES comes first, the peptide text is derived from it. Bridges are numbered along the chain shown (N, C = ends).

How the values were obtained:
E. coli 08A866 = assay type: cell-based, Escherichia coli; settings: for Amount of bacteria co-cultured with sample: Table 4, LB, 35 °C
Experimental: The details were provided in the Materials and Methods S1.
Fresh overnight colonies were added to a total of 20 ml LB, and incubated on a 35 °C water bath. After one hour of incubation, 1 ml broth from each flask was replaced with the test solution. The colony counting was performed at different time after addition of the test solutions as described by Mygind et al.

[1] = system: Staphylococcus aureus ATCC2592; assay: microbe, parasite or virus in culture; settings: ATCC2592
Experimental: (§1) Antimicrobial activities of cathelicidin-BF and cathelicidin-BF15 ([…]) were tested according to our previous methods [39]–[42]. […] The details were provided in the Materials and Methods S1.
(§2) Standard and clinically isolated microorganism strains were used for antimicrobial assays. Bacteria were first grown in LB (Luria-Bertani) broth to an OD600 nm of 0.8. A 10 µl aliquot of the bacteria was then taken and added to 8 ml of fresh LB broth with 0.7% agar and poured over a 90 mm Petri dish containing 25 ml of 1.5% agar in LB broth. After the top agar hardened, a 20 µl aliquot of the test sample filtered on a 0.22 µm Millipore filter was dropped onto the surface of the top agar and completely dried before being incubated overnight at 37 °C. If the sample examined had antimicrobial activity, a clear zone would be formed on the surface of the top agar representing inhibition of bacterial growth. Minimal inhibitory concentration (MIC) was determined in liquid LB medium by incubating the bacteria in LB broth with variable amounts of the sample tested. The MIC at which no visible growth occurred was recorded. In the assays of anti-fungi activity, for strains of Aspergillus terreus, A. niculans, and Chaetomium globosum, the fungal spore concentration was first counted under a microscope. The fungi with an initial concentration of 10^5 spores/ml were cultured with variable amounts of the sample tested in yeast extract-peptone-dextrose broth.

Bacillus subtilis = assay: microbe, parasite or virus in culture
Experimental: as §1, §2

[2] = system: Pseudomonas aeruginosa ATCC27853; assay: microbe, parasite or virus in culture; settings: ATCC27853
Experimental: as §1, §2

[3] = system: Escherichia coliATCC25922; assay: microbe, parasite or virus in culture; settings: ATCC25922
Experimental: as §1, §2

[4] = system: Candida albicans ATCC2002; assay: microbe, parasite or virus in culture
Experimental: as §1, §2

E. coli 08A866(IS, DR) = settings: clinically isolated strain, drug resistance for ampicillin and benzylpenicillin; liquid LB broth; mean of three independent experiments in duplicates; ND = no detectable activity
Experimental: as §1, §2

SMILES: CC[C@H](C)[C@H](NC(=O)[C@H](C)NC(=O)[C@@H](NC(=O)[C@@H]1CCCN1C(=O)[C@H](CC(C)C)NC(=O)[C@@H](NC(=O)[C@H](CO)NC(=O)[C@@H](NC(=O)[C@H](C)NC(=O)[C@@H](NC(=O)[C@H](CCCCN)NC(=O)[C@H](CC(C)C)NC(=O)[C@@H](NC(=O)[C@@H]1CCCN1C(=O)CNC(=O)[C@@H](NC(=O)[C@@H](N)Cc1ccccc1)[C@@H](C)CC)C(C)C)[C@@H](C)CC)[C@@H](C)O)[C@@H](C)CC)[C@@H](C)O)C(=O)N[C@H]1CSSC[C@@H](C(=O)O)NC(=O)[C@H](CCCCN)NC(=O)[C@H](CCCCN)NC(=O)[C@H](Cc2ccccc2)NC(=O)[C@H]([C@@H](C)CC)NC(=O)[C@H](CCCCN)NC1=O [HDW] (H-FIGPVLKIATSILPTAICKIFKKC-OH; disulfide 18-24 (inferred); N-terminus and C-terminus assumed)
- Amount of bacteria co-cultured with sample (E. coli 08A866; sample at 1 times MIC, time 0.1 min): 49 CFU
- Amount of bacteria co-cultured with sample (E. coli 08A866; sample at 1 times MIC, time 1 min): 14.7 CFU
- Amount of bacteria co-cultured with sample (E. coli 08A866; sample at 1 times MIC, time 10 min): 0 CFU
- Amount of bacteria co-cultured with sample (E. coli 08A866; sample at 1 times MIC, time 30 min): 0 CFU
- Amount of bacteria co-cultured with sample (E. coli 08A866; sample at 10 times MIC, time 0.1 min): 38 CFU
- Amount of bacteria co-cultured with sample (E. coli 08A866; sample at 10 times MIC, time 1 min): 3.7 CFU
- Amount of bacteria co-cultured with sample (E. coli 08A866; sample at 10 times MIC, time 10 min): 0 CFU
- Amount of bacteria co-cultured with sample (E. coli 08A866; sample at 10 times MIC, time 30 min): 0 CFU
- time to clean E. coli (E. coli 08A866; killing kinetics during 30 min (Table 4), comparison of cathelicidin-BF and HDW): several minutes
- MIC [1]: 1.2 µg/mL (≈ 0.461 µM)
- MIC (Bacillus subtilis): 2.3 µg/mL (≈ 0.883 µM)
- MIC [2]: 37.5 µg/mL (≈ 14.4 µM)
- MIC [3]: 18.7 µg/mL (≈ 7.18 µM)
- MIC [4]: 2.3 µg/mL (≈ 0.883 µM)
- MIC (E. coli 08A866(IS, DR)): 18.7 µg/mL (≈ 7.18 µM)
